# Reference: US9126941B2, “Treatment of hyperproliferative disorders with diarylhydantoin compounds” (The Regents of the University of California, priority 2005, dated 2015)
# Entries after “also recorded” stand apart in the source; their conditions may differ.
# Columns and labels:
# [1] = test system: LNCaP-AR xenograft tumors; assay: LNCaP-AR xenograft in SCID mice, tumor size and luciferase imaging (RD162); format: in vivo; conditions: for Tumor growth / tumor volume over time (FIG. 11): 10 or 50 mg/kg orally every day, 18 days; for Photon emission associated with luciferase activity (FIG. 12): day 18, 3 hours after last dose
# Description: FIG. 11 is a graph of tumor size. AR overexpressing LNCaP cells were injected in the flanks of castrated […] mice, subcutaneously. When tumors reached about 100 cubic mm, they were randomized into five groups. Each group had nine animals. […] The tumors were measured three-dimensionally, width, length and depth, using a caliper.
# FIG. 12 depicts experimental results of tumor size. At day 18, the animals were imaged via an optical CCD camera, 3 hours after last dose of treatment. A ROI was drawn over the tumor for luciferase activity measurement in photon/second. The right panels is a representation of the ROIs measurements.
# (A) The relative tumor volume as a function of time shown for each set of mice. (B) Images of each set of mice with photon emission associated with luciferase activity at day 31 shown as color contours. (C) Rate of photon emission associated with luciferase activity shown at several times for each set of mice.
# All animal experiments were performed in compliance with the guidelines of the Animal Research Committee of the University of California at Los Angeles. Animals were bought from Taconic and maintained in a laminar flow tower in a defined flora colony. LNCaP-AR and LNCaP-vector cells were maintained in RPMI medium supplemented with 10% FBS. 10^6 cells in 100 μl of 1:1 Matrigel to RPMI medium were injected subcutaneously into the flanks of intact or castrated male SCID mice. Tumor size was measured weekly in three dimensions (length×width×depth) using calipers. Mice were randomized to treatment groups when tumor size reached approximately 100 mm^3. Drugs were given orally every day at 10 mg/kg and 50 mg/kg. To obtain pharmacodynamic readout, the animals were imaged via an optical CCD camera, 3 hours after last dose of the treatment. A ROI is drawn over the tumor for luciferase activity measurement in photon/second. The right panels were a representation of the ROIs measurements.
# [2] = test system: L1AR cell line; assay: Luciferase activity of the L1AR cell line; format: cell-based; conditions: at a given concentration, 125 nmol to 1000 nmol
# [3] = test system: castrated luciferase transgenic mice; assay: Castrated luciferase transgenic mice with implanted testosterone pellet, urogenital tract weight and photon emission; format: in vivo; conditions: 10 mg per kg per day, 14 days
# Source text: FIG. 23 presents results of an experiment conducted with wild type nontransgenic mice (WT), castrated luciferase transgenic mice (Cast), and non-castrated luciferase transgenic mice (Intact). […] (A) Urogenital tract weight at 14 days. (B) Photon emission rate at 14 days.
# [4] = Pharmacokinetics in FVB mice, drug concentration by HPLC; conditions: for Css, 10 mg/kg [μM] / Css, 25 mg/kg [μM] / Css, 50 mg/kg [μM]: steady-state concentration in mice plasma
# Description: Mice were divided into groups of three for each time points. Two mice were not treated with drug and two other mice were treated with vehicle solution. […]
# The drug was dissolved in a mixture 1:5:14 of DMSO:PEG400:H20. (Vehicle solution) and was administered into mice through the tail vein. The animals are warmed under a heat lamp for approximately 20 minutes prior to treatment to dilate their tail vein. […] After drug administration, the animals were euthanized via CO2 inhalation at different timepoints: […], […], 2 h, 6 h, 16 h. Animals were immediately bleed after exposure to CO2 via cardiac puncture (1 ml BD syringe+27 G ⅝ needle).
# The samples for HPLC analysis were prepared according to the following procedure: • Blood cells were separated from serum by centrifugation. • To 400 μl of serum were added 80 μl of a 10 μM solution of an internal standard and 520 μl of acetonitrile. Precipitation occurred. • The mixture was vortexed for 3 minutes and then placed under ultrasound for 30 minutes. • The solid particles were filtered off or were separated by centrifugation. • The filtrate was dried under an argon flow to dryness.
# [5] = biological target: T1, AR (Homo sapiens, UniProt P10275); assay: cell-based; format: cell-based; conditions: for PSA levels of LN-AR cells (FIG. 14): various doses
# T1 sequence (P10275 whole entry, looked up): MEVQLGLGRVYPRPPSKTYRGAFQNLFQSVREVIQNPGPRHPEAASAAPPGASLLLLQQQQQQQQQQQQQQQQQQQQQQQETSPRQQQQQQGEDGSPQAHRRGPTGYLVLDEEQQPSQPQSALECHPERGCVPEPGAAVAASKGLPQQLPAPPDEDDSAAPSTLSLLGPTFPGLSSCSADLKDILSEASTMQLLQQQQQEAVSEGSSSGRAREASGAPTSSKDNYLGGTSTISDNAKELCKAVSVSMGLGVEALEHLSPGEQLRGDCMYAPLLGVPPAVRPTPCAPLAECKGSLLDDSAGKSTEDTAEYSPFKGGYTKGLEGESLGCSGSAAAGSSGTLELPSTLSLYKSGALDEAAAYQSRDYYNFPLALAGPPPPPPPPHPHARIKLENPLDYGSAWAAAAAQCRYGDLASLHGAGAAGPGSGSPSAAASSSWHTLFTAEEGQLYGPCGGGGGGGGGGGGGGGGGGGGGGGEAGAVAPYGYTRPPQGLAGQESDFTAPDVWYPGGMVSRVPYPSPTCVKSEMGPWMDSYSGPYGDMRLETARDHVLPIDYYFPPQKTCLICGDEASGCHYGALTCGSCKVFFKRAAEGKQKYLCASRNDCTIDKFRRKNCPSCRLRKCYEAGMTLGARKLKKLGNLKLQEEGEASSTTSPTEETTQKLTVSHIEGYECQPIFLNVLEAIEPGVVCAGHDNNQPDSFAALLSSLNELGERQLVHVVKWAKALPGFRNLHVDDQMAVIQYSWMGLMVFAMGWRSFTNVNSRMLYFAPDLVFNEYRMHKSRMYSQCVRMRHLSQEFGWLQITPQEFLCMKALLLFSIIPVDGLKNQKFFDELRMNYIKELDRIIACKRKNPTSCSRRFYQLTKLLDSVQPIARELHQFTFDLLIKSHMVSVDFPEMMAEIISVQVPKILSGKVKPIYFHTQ
# Description: It is well established that PSA levels are indicators of AR activities in prostate cancer. […] The LNCaP-AR cells are a line of lymph node carcinoma of prostate cells transduced with a plasmid that makes express androgen receptors. […] After four days incubation, secreted PSA levels were assayed using PSA ELISA kits (American Qualex, San Clemente, Calif.)
# [6] = biological target: T1, AR; assay: cell-based; format: cell-based
# Description: The compounds were subjected to tests using an artificial AR response reporter system in a hormone refractory prostate cancer cell line. […] After two days of incubation, reporter activities were assayed.
# [7] = test system: MCF7; assay: Growth effect on MCF7 cells; format: cell-based; conditions: breast cancer cells
# [8] = test system: DU-145 cells; assay: MTS growth assay, DU-145 cells; format: cell-based; conditions: prostate cancer cell line lacking AR expression
# [9] = test system: 3T3; assay: Growth effect on 3T3 fibroblasts; format: cell-based; conditions: normal mouse fibroblast cell line
# [10] = test system: LNCaP cells; assay: MTS growth assay, hormone sensitive LNCaP cells; format: cell-based
# Description: FIG. 10. Inhibitory effect on growth of hormone sensitive prostate cancer cells. […] After 4 days of incubation, cell growth was measured by MTS assay.
# [11] = test system: SkBr3; assay: Growth effect on SkBr3 cells; format: cell-based; conditions: breast cancer cells
# [12] = test system: hormone refractory LAPC4 xenograft; assay: Hormone refractory LAPC4 xenograft model; format: in vivo, mice; conditions: 1 mg per kg orally once daily, 17 days
# Description: FIG. 9. […] (A), tumor size was measured by caliber. (B), the tumors were taken out from the mice after 17 days of treatment, tumor lysate was extracted, and PSA level in tissue lysate was determined by ELISA.
# This model was established from passaging of hormone sensitive prostate cancer in castrated mice, which mimics the clinical progression of prostate cancer (2).
# [13] = test system: AR-overexpressed LNCaP xenograft tumors; assay: AR-overexpressed LNCaP xenograft model in castrated male SCID mice, oral once daily; format: in vivo; conditions: 1 mg per kg orally once daily, 44 days
# Description: FIG. 7. […] Mice with established LN-AR xenograft tumors were randomized and treated with indicated compounds orally once daily. Tumor size was measured by caliber.
# FIG. 8. […] The tumors were taken out from the mice after 44 days of treatment, tumor lysate was extracted, and PSA level in tissue lysate was determined by ELISA.
# First we examined this compound on xenograft tumors established from AR-overexpressed LNCaP cells. The engineered cells in Matrigel (Collaborative Biomedical) were injected subcutaneously into the flanks of the castrated male SCID mice. Tumor size was measured weekly in three dimensions using calipers. After xenograft tumors established (tumor size reached at least 40 mm^3), mice with tumors were randomized and treated with different doses of compounds orally once daily.
# [14] = Ranking of compounds in tiers for utility in treating prostate cancer; conditions: assay not specified
# Source text: The placement of compounds into tiers was based on available data coupled with analytical judgment. Data considered included in vitro assays (AR response reporter system in LNCaP cell line, PSA level measurement, MTS mitochondrial assay) and in vivo experiments (tumor size measured directly or by emission induced by luciferase reporter gene, pharmacokinetic assays based on blood plasma levels). Not every compound was subjected to each assay. […] Judgment was applied in ranking compounds relative to each other for their utility in treating prostate cancer, in particular when ranking two compounds for which the same experiments were not performed. Characteristics considered in establishing the ranking include AR antagonism activity, lack of AR agonism in hormone refractory cells, prevention of tumor growth, tumor shrinkage, and pharmacokinetic behavior, with a longer residence time in blood being advantageous.
# [15] = 10 mg per kg per day, LN-AR (HR) in SCID mice
structure (smiles),measurement,setting,value
"CNC(=O)c1ccc(N2C(=S)N(c3ccc(C#N)c(C(F)(F)F)c3)C(=O)C23CCC3)cc1F [RD162, N-methyl-4-[7-(4-cyano-3-trifluoromethylphenyl)-8-oxo-6-thioxo-5,7-diaza-spiro[3.4]oct-5-yl]-2-fluorobenzamide]","Tumor volume, 1 mg per kg body weight per day (FIG. 18)",[1]; 1 mg per kg per day,the rate of tumor increase decreased
same,"Tumor volume, 10 mg per kg body weight per day (FIG. 18)",[1]; 10 mg per kg per day,tumor size decreased with time
same,Photon emission associated with luciferase activity (FIG. 20),[1]; [15],decrease in photon emission
same,Tumor size (FIG. 20),[1]; [15],decrease or stabilization of tumor size
same,Photon emission associated with luciferase activity (FIG. 19),"[1]; 10 mg per kg per day, day 17 relative to day 0",decreased
same,Tumor growth / tumor volume over time (FIG. 11),[1],effective to prevent tumor growth and even to cause tumor shrinkage; also recorded: tumors decreased in size
same,Photon emission associated with luciferase activity (FIG. 12),[1],decreased
same,"Luciferase activity, L1AR cell line (FIG. 24)",[2],less than the luciferase activity upon exposure to RD149
same,Photon emission associated with luciferase activity (FIG. 23),[3],decrease
same,Urogenital tract weight (FIG. 23),[3],decrease
same,"Css, 10 mg/kg [μM]",[4],9.9 µM
same,"Css, 25 mg/kg [μM]",[4],10.7 µM
same,"Css, 50 mg/kg [μM]",[4],10.2 µM
same,PSA levels of LN-AR cells (FIG. 21),"[5]; doses of 100, 200, 500 and 1000 nM",decreased
same,PSA levels of LN-AR cells (FIG. 14),[5],PSA levels decreased
same,Luciferase activity in LNCaP-AR cells (FIG. 3),[6],acted to reduce luciferase activity
"Cc1ccc(N2C(=S)N(c3ccc(C#N)c(C(F)(F)F)c3)C(=O)C2(C)C)cc1 [RD7, 4-[3-(4-methylphenyl)-4,4-dimethyl-5-oxo-2-thioxoimidazolidin-1-yl]-2-trifluoromethyl-benzonitrile]",Growth effect on MCF7,[7],no growth effect
same,Growth inhibitory effect on DU-145 cells,[8],no growth inhibitory effect
same,Growth effect on 3T3,[9],no growth effect
same,Potency relative to bicalutamide on hormone sensitive prostate cancer cells,"[10]; FIG. 10, MTS",10 fold
same,Growth effect on SkBr3,[11],no growth effect
"CC(O)(CS(=O)(=O)c1ccc(F)cc1)C(=O)Nc1ccc(C#N)c(C(F)(F)F)c1 (stereo not drawn) [Bicalutamide, N-[4-cyano-3-(trifluoromethyl)phenyl]-3-[(4-fluorophenyl)sulfonyl]-2-hydroxy-2-methylpropanamide, reference compound]",Tumor growth / tumor volume over time (FIG. 11),[1],tumors continued to grow
same,Photon emission associated with luciferase activity (FIG. 12),[1],remained about the same or increased
same,Photon emission associated with luciferase activity (FIG. 23),[3],decrease
same,Urogenital tract weight (FIG. 23),[3],decrease
same,Growth of hormone refractory LAPC4 xenograft (FIG. 9a),[12],did not inhibit
same,PSA expression in hormone refractory LAPC4 xenograft (FIG. 9b),[12],did not inhibit
same,Growth of LNCaP-AR xenograft tumors (FIG. 7a),[13],did not inhibit growth
same,Inhibition of hormone sensitive LNCaP cell growth (MTS),[10]; dose-dependent,mildly inhibited
"CNC(=O)c1ccc(N2C(=S)N(c3ccc(C#N)c(C(F)(F)F)c3)C(=O)C23CCC3)cc1 [RD161, N-methyl-4-[7-(4-cyano-3-trifluoromethylphenyl)-8-oxo-6-thioxo-5,7-diazaspiro[3.4]oct-5-yl]benzamide]","Luciferase activity, L1AR cell line (FIG. 24)",[2],less than the luciferase activity upon exposure to RD149
same,Luciferase activity in LNCaP-AR cells (FIG. 3),[6],acted to reduce luciferase activity
same,"Rank order, most active to least active, relative luciferase activity (FIG. 3)",[6]; 500 nM,RD152>RD153>RD145>RD163>RD161=RD162>bicalutamide
"CNC(=O)CCCc1ccc(N2C(=S)N(c3ccc(C#N)c(C(F)(F)F)c3)C(=O)C23CCC3)cc1 [RD131, 4-{4-[7-(4-Cyano-3-trifluoromethylphenyl)-8-oxo-6-thioxo-5,7-diaza-spiro[3.4]oct-5-yl]phenyl}-N-methyl-butyramide]","Pharmacokinetic behavior, residence time in blood",[4]; mice,metabolize fast
same,"Css, 10 mg/kg [μM]",[4],0.39 µM
same,"Css, 25 mg/kg [μM]",[4],0.43 µM
same,"Css, 50 mg/kg [μM]",[4],0.40 µM
same,"Rank order, most active to least active, relative PSA level (FIG. 4)",[5]; 500 nM,RD138>RD131>RD37>RD133>RD134>RD137>RD138>RD135>bicalutamide
same,"Decrease in PSA level of LNCaP-AR cells, comparison (FIG. 4)",[5]; at concentrations of 1000 nM,"greater decrease in PSA level of LNCaP-AR cells than RD133, RD134, and RD138"
same,"PSA level, LN/AR cell line, comparison",[5]; for a given dose / concentration,less than the PSA level upon exposure to RD128 and RD129
same,PSA levels of LN-AR cells (FIG. 14),[5],PSA levels decreased
same,IC50,[6],92 nM
same,IC50 compared with bicalutamide (FIG. 15),[6]; assay not specified,much lower than the IC50 for bicalutamide
same,"Activity (words, overall)",[14],particularly advantageous
"N#Cc1ccc(N2C(=S)N(c3ccc(C#N)c(C(F)(F)F)c3)C(=O)C23CCCC3)cc1 [RD54, 4-[1-(4-cyanophenyl)-4-oxo-2-thioxo-1,3-diazaspiro[4.4]non-3-yl]-2-trifluoromethylbenzonitrile]",IC50,[6],469 nM
same,Indication of agonism,[14],could act as an agonist
